Series [1] concerns Staphylococcus epidermidis IAM1296. Briefly: in vitro antimicrobial activity test (MIC). The series is classed as cell-based.
Series [2] has as its system Staphylococcus aureus 209P. As to the kind of experiment: in vitro antimicrobial activity test (MIC). The series is classed as cell-based.
The subject of series [3] is Escherichia coli NIHJ JC-2. Briefly: in vitro antimicrobial activity test (MIC). In kind it is cell-based. Conditions: NIHJJC2.
For series [4], the system named is Citrobacter freundii GN346. As to the kind of experiment: in vitro antimicrobial activity test (MIC). In kind it is cell-based.
In the next series the test system is Serratia marcescens X100. As to the kind of experiment: in vitro antimicrobial activity test (MIC). In kind it is cell-based.
In a further series the test system is bacteria. Conditions: background, compared with commercially available cephem antibiotics; cited from earlier work.
Series [5] deals with resistant bacteria which produce β-lactamase. Conditions: background, cephem antibiotics for oral administration; cited from earlier work.
A short description of series [6]: oral absorbability test: urinary excretion in mice after oral administration. The series is classed as in vivo. To be noted: mouse, urine, dose: 50 mg/kg, read-out: Urinary excretion rate in mice after oral administration.

Values after ≈ are worked out from the molar mass of the structure shown.

By MIC is commonly meant the smallest concentration in the dilution series that meets the test's criterion for growth inhibition. High values mean weaker potency, low ones greater potency. As for `CO/N=C(\C(=O)NC1C(=O)N2C(C(=O)O)=C(CSc3ncns3)CS[C@H]12)c1cscn1` (stereo partly drawn) [Example 2, 7-[(Z)-2-Methoxyimino-2-(thiazol-4-yl)acetamido]-3-(1,2,4-thiadiazol-5-yl)thiomethyl-3-cephem-4-carboxylic acid], the minimum inhibitory concentration (MIC) was found to be 1.56 µg/mL (≈ 3.13 µM) in series [1]; 0.2 µg/mL (≈ 0.401 µM) in series [2]; 0.2 µg/mL (≈ 0.401 µM) in series [3]; 0.78 µg/mL (≈ 1.56 µM) in series [4]; 0.78 µg/mL (≈ 1.56 µM) in the series on Serratia marcescens X100.
As for `N[C@@H](C(=O)N[C@@H]1C(=O)N2C(C(=O)O)=C(Cl)CS[C@H]12)c1ccccc1` [cefaclor], the “antimicrobial activity and width of the antimicrobial spectrum” value (“antimicrobial activity and width” for short) in the series on bacteria is on record as “slightly inferior”. Also, the “activity on resistant bacteria which produce β-lactamase” value in series [5] is given as “ineffective”.
As to `CO/N=C(\C(=O)NC1C(=O)N2C(C(=O)OCc3oc(=O)oc3C)=C(CSc3ncns3)CS[C@H]12)c1cscn1` (stereo partly drawn) [Example 15, (5-Methyl-2-oxo-1,3-dioxolen-4-yl)methyl-7-[(Z)-2-methoxyimino-2-(thiazol-4-yl)acetamido]-3-(1,2,4-thiadiazol-5-yl)thiomethyl-3-cephem-4-carboxylate], the dose excreted in series [6] was 32%.
Same read-out and setting: with `CCOC(=O)OC(C)OC(=O)C1=C(CSc2nc(C)ns2)CS[C@@H]2C(NC(=O)/C(=N\OC)c3cscn3)C(=O)N12` (stereo partly drawn) [Example 6, 1-Ethoxycarbonyloxyethyl 7-[(Z)-2-methoxyimino-2-(thiazol-4-yl)acetamido]-3-(3-methyl-1,2,4-thiadiazol-5-yl)thiomethyl-3-cephem-4-carboxylate] the figure was 32%.
`CO/N=C(\C(=O)NC1C(=O)N2C(C(=O)O)=C(CSc3nc(C)ns3)CSC12)c1cscn1` (stereo not drawn) [Example 1, 7-[(Z)-2-Methoxyimino-2-(thiazol-4-yl)acetamido]-3-(3-methyl-1 2,4-thiadiazol-5-yl)thiomethyl-3-cephem-4-carboxylic acid]: the minimal inhibitory concentration (MIC) in series [1] was 1.56 µg/mL (≈ 3.04 µM); in series [2], 0.1 µg/mL (≈ 0.195 µM); in series [3], 0.1 µg/mL (≈ 0.195 µM); in series [4], 0.78 µg/mL (≈ 1.52 µM); in the series with Serratia marcescens X100, 0.78 µg/mL (≈ 1.52 µM).
`CC1=C(C(=O)O)N2C(=O)[C@@H](NC(=O)[C@H](N)c3ccccc3)[C@H]2SC1` [cephalexin]: the “antimicrobial activity and width” value with bacteria is on record as “slightly inferior”. Also, the “activity on resistant bacteria which produce β-lactamase” value in series [5] is listed as “ineffective”.
On to `N[C@@H](C(=O)N[C@@H]1C(=O)N2C(C(=O)O)=C(CSc3c[nH]nn3)CS[C@H]12)c1ccc(O)cc1` [cefatrizine], for which the “antimicrobial activity and width” value in the series on bacteria is “slightly inferior”. In addition, the “activity on resistant bacteria which produce β-lactamase” value in series [5] is listed as “ineffective”.

The record behind these values is US4761409A, “Cephem derivatives” (Sumitomo Pharmaceuticals Company, Limited, priority 1984, dated 1988).
